# Assay results taken from patent US4549988A, “3H-2-Benzazepines” (Hoffmann-La Roche Inc., priority 1983, dated 1985).
# What was measured:
# ^3 H--Imipramine Binding = experiment: imipramine binding assay (3H-imipramine, rat cortex homogenate); parameters: species or system Sprague Dawley male rats; details: 15 minutes at room temperature, nonspecific binding by 10^-3 M imipramine
# Protocol: IMIPRAMINE BINDING ASSAY METHOD
# Sprague Dawley male rats (180 g) are decapitated and the brains immediately placed on ice. Cortex is dissected and homogenized in 8 volumes of 0.25M sucrose. Homogenate is centrifuged at 2900 rpm (1000×g) in a Sorvall RCLB centrifuge with a SM 24 head. Supernatant is decanted and polytronized for 60 seconds using a Brinkmann Polytron (Model PT-10) at setting 5. Dilutions of imipramine hydrochloride are made in ehtanol (1:5). Each assay sample contains: 1.8 ml of Krebs Ringer Buffer, 20 μl of imipramine or other drugs and 20 μl of ^3 H-imipramine ([…]). The ^3 H-imipramine is from New England Nuclear #NET 576, 20-40 curies/millimole. Imipramine (10^-3 M) is used to define nonspecific binding. Incubation is for 15 minutes at room temperature. Samples are then put in ice bath for 5 minutes. Each sample is filtered on a 45-place manifold (E. Sandbek Co., Airville, Pa.). Filter is a Whatman GF/B. Filters are placed in 13 ml of aquasol and shaken for 2 hours, then the radioactivity trapped on the filter is determined by liquid scintillation spectrometry.
# [1] = system: metrazol convulsive seizures; experiment: antimetrazol test (oral compound, protection from metrazol-induced convulsive seizures); assay type: in vivo; details: Mus musculus, 1 h, mice, one hour before metrazol s.c., Miller-Tainter method
# Protocol: Periodically a metrazol standardization test precedes the assay to ascertain the quantity of metrazol, administered to control mice, sufficient to induce convulsive seizures in all animals. This is usually 125 mg/kg. In the antimetrazol test, a compound is administered orally to groups of four mice at various dose levels. One hour later, metrazol (at a dose level previously determined in the standardization test) is administered subcutaneously and the animals are observed for protection from convulsive seizures. Results are recorded as the number of animals protected against convulsions. The dose at which 50% of the animals are protected from convulsive seizures is expressed as the ED50. On active compounds, 8 animals employed per dose group. The ED50 is calculated by the Miller-Tainter method (Proc.Soc.Exp.Med. and Bio., 57, 261, 1944).
# [2] = Toxicity, 24 hr. LD50 (PO); details: in vivo
Compound,IC50 (^3 H--Imipramine Binding) [µM],ED50 [1] [mg/kg],LD50 at 24 h [2] [mg/kg]
"CN(C)CCCN1c2ccccc2CCc2ccccc21 [Imipramine, reference compound]",7.1,,
Cl.Cl.NCC#CC1=CCN=C(c2ccccc2F)c2cc(Cl)ccc21 [8-Chloro-5-(1-amino-2-propyn-3-yl)-1-(2-fluorophenyl)-3H-2-benzazepine dihydrochloride],20,3,500
CN(C)CC#CC1=CCN=C(c2ccccc2F)c2cc(Cl)ccc21.Cl.Cl [8-Chloro-5-(1-dimethylamino-2-propyn-3-yl)-1-(2-fluorophenyl)-3H-2-benzazepine dihydrochloride],,19,> 1000
Cl.Cl.NCC#CC1=CCN=C(c2ccccc2)c2cc(Cl)ccc21 [8-Chloro-5-(1-amino-2-propyn-3-yl)-1-phenyl-3H-2-benzazepine dihydrochloride],11,32,500
[O-][N+]1=C(c2ccccc2)c2cc(Cl)ccc2C=CC1 [8-Chloro-1-phenyl-3H-2-benzazepine-2-oxide],,5.2,> 1000
